Source: ChEMBL document CHEMBL3997829, “Discovery of novel substituted octahydropyrrolo[3,4-c]pyrroles as dual orexin receptor antagonists for insomnia treatment” (Bioorg Med Chem Lett, 2017)
pIC50: −log10 of the molar value. Converted amounts (≈) assume the structure as drawn.

Legend:
Rattus norvegicus [1] = assay: Sleep promoting activity in po dosed Sprague-Dawley rat assessed as decrease in active wake time measured over 2 hrs by electroencephalogram method; format: functional, organism-based
[2] = Thermodynamic solubility of the compound in phosphate buffer at pH 7.4 by HPLC method; format: physicochemical; settings: read-out: Therm_solubility
[3] = Ratio of drug level in brain to plasma in Sprague-Dawley rat at 10 mg/kg, po at 1 hr; format: ADME, organism-based; settings: read-out: BPR
Rattus norvegicus [4] = assay: Sleep promoting activity in Sprague-Dawley rat assessed as effect on rapid eye movement sleep time at 30 mg/kg, po measured over 2 hrs by electroencephalogram method; format: functional
[5] = Clearance in Sprague-Dawley rat at 2 mg/kg, iv; format: ADME, organism-based; settings: in vivo
[6] = Cmax in Sprague-Dawley rat at 15 mg/kg, po; format: ADME, organism-based; parameters: dose 15 mg/kg, route oral; settings: in vivo
[7] = Tmax in Sprague-Dawley rat at 15 mg/kg, po; format: ADME, organism-based; settings: in vivo
Brain [8] = assay: Drug uptake in Sprague-Dawley rat brain at 10 mg/kg, po at 4 hrs; format: ADME, organism-based; settings: in vivo
[9] = target: T1, Orexin/Hypocretin receptor type 1 (Homo sapiens, UniProt O43613); assay: Antagonist activity at human orexin 1 receptor expressed in HEK293 cells assessed as inhibition of orexin-induced calcium mobilization after 60 mins by FLIPR assay; format: functional, cell-based
T1 sequence (O43613 whole entry): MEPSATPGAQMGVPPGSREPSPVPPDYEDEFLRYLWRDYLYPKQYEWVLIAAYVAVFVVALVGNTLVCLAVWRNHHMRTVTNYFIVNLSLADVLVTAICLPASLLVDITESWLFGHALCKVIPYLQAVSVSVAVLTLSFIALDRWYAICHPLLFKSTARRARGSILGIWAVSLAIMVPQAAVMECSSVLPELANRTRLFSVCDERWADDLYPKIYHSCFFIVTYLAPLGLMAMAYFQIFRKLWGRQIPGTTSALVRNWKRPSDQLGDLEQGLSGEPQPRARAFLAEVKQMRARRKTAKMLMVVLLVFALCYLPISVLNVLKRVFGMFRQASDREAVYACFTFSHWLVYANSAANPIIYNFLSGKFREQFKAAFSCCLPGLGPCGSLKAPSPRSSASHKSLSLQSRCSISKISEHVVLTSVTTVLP

Orexin receptor type 2 = target: T2, Orexin receptor type 2 (Homo sapiens, UniProt O43614); assay: Antagonist activity at human orexin 2 receptor expressed in HEK293 cells assessed as inhibition of orexin-induced calcium mobilization after 60 mins by FLIPR assay; format: functional, cell-based
T2 sequence (O43614 whole entry): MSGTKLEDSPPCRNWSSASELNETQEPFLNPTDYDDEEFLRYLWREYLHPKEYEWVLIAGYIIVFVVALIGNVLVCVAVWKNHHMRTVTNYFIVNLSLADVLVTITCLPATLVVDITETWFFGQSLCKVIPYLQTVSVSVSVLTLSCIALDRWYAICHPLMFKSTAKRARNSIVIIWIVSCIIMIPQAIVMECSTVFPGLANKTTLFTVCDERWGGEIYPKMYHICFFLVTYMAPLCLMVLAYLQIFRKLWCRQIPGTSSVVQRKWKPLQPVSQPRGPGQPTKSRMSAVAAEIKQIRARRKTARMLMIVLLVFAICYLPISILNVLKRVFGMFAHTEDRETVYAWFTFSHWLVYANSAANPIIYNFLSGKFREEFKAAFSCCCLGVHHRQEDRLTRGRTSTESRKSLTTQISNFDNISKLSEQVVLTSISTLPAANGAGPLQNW

[10] = Ratio of drug level in brain to plasma in Sprague-Dawley rat at 10 mg/kg, po at 0.5 hrs; format: ADME, organism-based; settings: read-out: BPR
[11] = Half life in Sprague-Dawley rat at 2 mg/kg, iv; format: ADME, organism-based; settings: in vivo
Rattus norvegicus [12] = assay: Sleep promoting activity in Sprague-Dawley rat assessed as decrease in active wake time at 30 mg/kg, po measured over 2 hrs by electroencephalogram method; format: functional
Rattus norvegicus [13] = assay: Sleep promoting activity in Sprague-Dawley rat assessed as effect on rapid eye movement sleep time at 90 mg/kg, po measured over 2 hrs by electroencephalogram method; format: functional
[14] = Ratio of drug level in brain to plasma in Sprague-Dawley rat at 10 mg/kg, po at 4 hrs; format: ADME, organism-based; settings: read-out: BPR
Brain [15] = assay: Drug uptake in Sprague-Dawley rat brain at 10 mg/kg, po at 1 hr; format: ADME, organism-based; settings: in vivo
[16] = AUC in Sprague-Dawley rat at 15 mg/kg, po; format: ADME, organism-based; settings: in vivo
Rattus norvegicus [17] = assay: Sleep promoting activity in po dosed Sprague-Dawley rat assessed as increase in slow wave sleep time measured over 2 hrs by electroencephalogram method; format: functional, organism-based
Rattus norvegicus [18] = assay: Sleep promoting activity in Sprague-Dawley rat assessed as increase in slow wave sleep time at 90 mg/kg, po measured over 2 hrs by electroencephalogram method; format: functional
[19] = Oral bioavailability in Sprague-Dawley rat at 15 mg/kg; format: ADME, organism-based; settings: in vivo
[20] = Plasma concentration in Sprague-Dawley rat at 10 mg/kg, po at 1 hr; format: ADME, organism-based
[21] = Plasma concentration in Sprague-Dawley rat at 10 mg/kg, po at 0.3 hrs; format: ADME, organism-based
[22] = Plasma concentration in Sprague-Dawley rat at 10 mg/kg, po at 4 hrs; format: ADME, organism-based
Brain [23] = assay: Drug uptake in Sprague-Dawley rat brain at 10 mg/kg, po at 0.3 hrs; format: ADME, organism-based; settings: in vivo
Rattus norvegicus [24] = assay: Sleep promoting activity in Sprague-Dawley rat assessed as decrease in active wake time at 90 mg/kg, po measured over 2 hrs by electroencephalogram method; format: functional
Rattus norvegicus [25] = assay: Sleep promoting activity in Sprague-Dawley rat assessed as increase in slow wave sleep time at 30 mg/kg, po measured over 2 hrs by electroencephalogram method; format: functional

Compound: Cc1ccc(-n2nccn2)c(C(=O)N2C[C@@H]3CN(c4nc5ccccc5o4)C[C@@H]3C2)c1
- Activity (Rattus norvegicus [1]): Dose-dependent effect
- solubility thermodynamic [2]: 41 µM (≈ 17 µg/mL)
- Kp at 1 h [3]: 0.12
- Time (Rattus norvegicus [4]): -0.1 min
- clearance [5]: 10 mL/min/kg
- Cmax [6]: 10.6 µM
- Tmax [7]: 0.25 h
- Drug uptake (Brain [8]): 22 nmol/kg
- pIC50 [9]: 6.52
- pIC50 (Orexin receptor type 2): 6.75
- Kp at 0.5 h [10]: 0.13
- half-life [11]: 1.9 h
- Time (Rattus norvegicus [12]): 25.7 min
- Time (Rattus norvegicus [13]): 4.3 min
- Kp at 4 h [14]: 0.06
- Drug uptake (Brain [15]): 429 nmol/kg
- AUC [16]: 20.3 µM·h
- Activity (Rattus norvegicus [17]): Dose-dependent effect
- Time (Rattus norvegicus [18]): 36.9 min
- bioavailability [19]: 23%
- concentration at 1 h [20]: 3.47 µM
- concentration at 0.3 h [21]: 8.79 µM
- concentration at 4 h [22]: 0.341 µM
- Drug uptake (Brain [23]): 1134 nmol/kg
- Time (Rattus norvegicus [24]): 41.1 min
- Time (Rattus norvegicus [25]): 25.9 min
